Data published in US8703811B2, “Small molecule inhibitors of Plasmodium falciparum dihydroorotate dehydrogenase” (Genzyme Corporation, priority 2008, dated 2014).
In brackets after ≈: the same amount, converted by molar mass. Read-outs that look alike come from different tables or passages of the source.

What was measured:
Log D measurement = assay type: physicochemical; conditions: octanol/water; read-out: LogD
Text: Many standard techniques are known in the art to establish the distribution coefficient of a compound between two particular solvents. The following description is one such technique that could be used to determine the distribution coefficient: The shake-flask method, which consists of dissolving some of the compound in a volume of octanol and water, then physically shaking the mixture and allowing the two solvents to fully separate. The concentration of the compound in each solvent is then measured. The most common method of measuring the distribution of the solute is by HPLC or UV/Vis spectroscopic techniques.

pfDHODH [1] = molecular target: T1, pfDHODH (Plasmodium falciparum (isolate 3D7), UniProt Q08210); experiment: DHODH chromogen reduction (DCIP) assay, pfDHODH; assay type: biochemical, P. falciparum; conditions: for inhibition at 50 µM: 50 μM inhibitor, 100 μM CoQD, 60 μM DCIP, read-out: % Inhibition of Product Formation Rate with 50 μM Inhibitor, CoQD
T1 sequence (Q08210 159-565 limits assumed): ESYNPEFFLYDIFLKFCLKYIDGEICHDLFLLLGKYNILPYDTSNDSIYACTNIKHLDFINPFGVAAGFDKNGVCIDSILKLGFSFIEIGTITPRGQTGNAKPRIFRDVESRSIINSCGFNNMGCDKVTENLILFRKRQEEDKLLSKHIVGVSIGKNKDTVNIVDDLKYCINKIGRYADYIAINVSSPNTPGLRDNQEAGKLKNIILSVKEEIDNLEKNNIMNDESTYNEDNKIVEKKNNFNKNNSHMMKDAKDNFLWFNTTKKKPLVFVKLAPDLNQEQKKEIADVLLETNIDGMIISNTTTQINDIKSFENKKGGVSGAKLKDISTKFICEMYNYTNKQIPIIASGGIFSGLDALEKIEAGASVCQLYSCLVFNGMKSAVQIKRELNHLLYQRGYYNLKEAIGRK

P. falciparum Dd2 = experiment: Inhibition of in vitro P. falciparum culture, [3H]-hypoxanthine uptake, Dd2; assay type: cell-based; conditions: Plasmodium falciparum; for IC50: read-out: Dd2 IC50
How it was run: (§1)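 Parasite growth inhibition measured as relative reduction of [3H]-hypoxanthine uptake in in vitro cultures. Values from non-linear regression fit, using relative growth velocity in place of product-formation rate.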

P. falciparum 3D7 = experiment: Inhibition of in vitro P. falciparum culture, [3H]-hypoxanthine uptake, 3D7; assay type: cell-based; conditions: Plasmodium falciparum; for IC50: read-out: 3D7 IC50
How it was run: as §1

Cytochrome P450 2C9 = Cytochrome P450 2C9 (Homo sapiens (Human), UniProt P11712); experiment: Cytochrome P450 inhibition, 2C9; assay type: in vitro ADME
Chain of Cytochrome P450 2C9 (P11712 whole entry): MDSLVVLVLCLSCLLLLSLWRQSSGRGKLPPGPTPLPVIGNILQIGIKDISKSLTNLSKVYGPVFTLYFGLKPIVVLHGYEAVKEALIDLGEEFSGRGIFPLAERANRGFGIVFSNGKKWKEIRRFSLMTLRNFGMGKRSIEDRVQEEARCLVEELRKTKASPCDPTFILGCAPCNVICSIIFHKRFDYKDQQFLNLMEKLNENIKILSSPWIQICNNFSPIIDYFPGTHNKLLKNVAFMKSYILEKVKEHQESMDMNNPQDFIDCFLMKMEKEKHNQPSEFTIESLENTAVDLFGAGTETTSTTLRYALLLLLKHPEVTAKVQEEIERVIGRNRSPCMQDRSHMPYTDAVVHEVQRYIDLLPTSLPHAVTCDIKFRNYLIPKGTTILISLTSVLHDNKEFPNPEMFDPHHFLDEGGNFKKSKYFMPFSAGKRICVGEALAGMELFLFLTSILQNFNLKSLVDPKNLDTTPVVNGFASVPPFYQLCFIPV
Text: (§2) Rapid screening for cytochrome P450 inhibitors is part of the current paradigm for avoiding development of drugs likely to give clinical pharmacokinetic drug-drug interactions and associated toxicities. There are commercially available assays for such screenings. For example, BD Biosciences (http://www.bdbiosciences.com/index.shtml) provides a technical bulletin describing a detailed, step-by-step procedure for the performance of the high throughput cytochrome P450 inhibition testing method.

Cytochrome P450 2D6 = Cytochrome P450 2D6 (Homo sapiens (Human), UniProt P10635); experiment: Cytochrome P450 inhibition, 2D6; assay type: in vitro ADME
Chain of Cytochrome P450 2D6 (P10635 whole entry): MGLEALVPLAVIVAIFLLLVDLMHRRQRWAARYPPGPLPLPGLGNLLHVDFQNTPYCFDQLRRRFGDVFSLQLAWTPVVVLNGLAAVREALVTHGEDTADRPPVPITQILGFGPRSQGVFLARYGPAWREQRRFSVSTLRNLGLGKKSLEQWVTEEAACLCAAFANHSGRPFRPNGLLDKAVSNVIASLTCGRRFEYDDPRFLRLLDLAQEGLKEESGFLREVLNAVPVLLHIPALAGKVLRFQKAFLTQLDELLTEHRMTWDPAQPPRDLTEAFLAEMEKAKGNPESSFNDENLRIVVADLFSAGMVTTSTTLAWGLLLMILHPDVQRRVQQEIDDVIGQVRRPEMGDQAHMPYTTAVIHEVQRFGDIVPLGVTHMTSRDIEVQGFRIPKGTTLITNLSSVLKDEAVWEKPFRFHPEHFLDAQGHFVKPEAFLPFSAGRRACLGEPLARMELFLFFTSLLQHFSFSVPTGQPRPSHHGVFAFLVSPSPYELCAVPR
Text: as §2

Solubility measurement = assay type: physicochemical; conditions: aqueous buffer, thermodynamic from solid; read-out: Solubility
Text: Many standard techniques are known in the art to establish the solubility of a compound in a particular solvent. The following description is one such technique that could be used to determine the solubility: Equilibrium solubility measurements start with the solid form of the compound (crystalline form preferred). The powder is physically mixed with an aqueous buffer (defined pH) until equilibrium is reached. Either centrifugation or filtration can be used to separate the solution from the remaining solid. The amount dissolved in the solution can be determined by any one of many known methods including HPLC or UV/Vis spectroscopic techniques.

Hepatic clearance, rat = assay type: in vitro ADME
Text: (§3) Clearance of drug by the liver will depend on the rate of delivery of drug to the liver (the hepatic blood flow) and on the efficiency of removal of drug which is presented to it (the extraction ratio). The hepatic clearance of compounds can be determined by standard methods known in the art. Such methods are described in, for example, Naritomi, Y; Terashita, S; Kagayama, A; Sugiyama, Y. “Utility of Hepatocytes in Predicting Drug Metabolism: Comparison of Hepatic Intrinsic Clearance in Rats and Humans in Vivo and in Vitro.” 2003, 31 (5): pages 580-588.

Cytochrome P450 3A4 = Cytochrome P450 3A4 (Homo sapiens (Human), UniProt P08684); experiment: Cytochrome P450 inhibition, 3A4; assay type: in vitro ADME
Chain of Cytochrome P450 3A4 (P08684 whole entry): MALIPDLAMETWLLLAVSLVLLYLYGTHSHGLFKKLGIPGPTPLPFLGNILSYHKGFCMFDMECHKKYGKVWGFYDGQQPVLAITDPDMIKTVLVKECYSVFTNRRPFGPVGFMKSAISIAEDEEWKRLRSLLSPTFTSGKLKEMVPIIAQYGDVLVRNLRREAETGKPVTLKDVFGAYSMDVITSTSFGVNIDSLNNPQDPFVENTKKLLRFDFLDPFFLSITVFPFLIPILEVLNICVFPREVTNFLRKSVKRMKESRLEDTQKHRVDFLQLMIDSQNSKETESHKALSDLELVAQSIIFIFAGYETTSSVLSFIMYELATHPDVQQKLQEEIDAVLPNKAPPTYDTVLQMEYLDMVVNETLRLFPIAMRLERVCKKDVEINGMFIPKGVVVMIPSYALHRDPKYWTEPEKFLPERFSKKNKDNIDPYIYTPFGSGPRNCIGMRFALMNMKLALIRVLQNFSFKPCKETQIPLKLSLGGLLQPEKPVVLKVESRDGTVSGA
Text: as §2

Hepatic clearance, human = assay type: in vitro ADME
Text: as §3

Permeability = assay type: in vitro ADME; conditions: Caco-2
Experimental: Permeability assays using the Caco-2 colon carcinoma cell line are being used throughout the pharmaceutical industry to estimate the ability of potential drug compounds to cross the intestinal epithelium. Caco-2 cell permeability studies are performed using Caco-2 cell monolayers grown on microporous membranes in multiwell insert systems. With the inserts suspended in the wells of multiwell plates, test compounds can be added to either the upper (apical) or lower (basolateral) chamber to measure permeability in the absorptive (apical to basolateral) or secretive (basolateral to apical) directions. Samples are then taken from the opposite chamber at various time intervals to measure the amount of test compound that has crossed the cell monolayer. A representative method to generate permeability data similar to that in Table 3 can be found in Alsenz, J; Haenel, E. “Development of a 7-Day, 96-Well Caco-2 Permeability Assay with High-Throughput Direct UV Compound Analysis.” Pharmaceutical Research 2003 20(12): p 1961-1969.
Parallel artificial membrane permeability assay (PAMPA) utilizes a simple phospholipid-coated filter disc to measure membrane permeability. It was developed as an alternative to the low throughput. Caco-2 cell permeability assay used to correlate passive permeability with in vivo oral absorption. A representative publication disclosing this method is Kerns, E H; Di, L; Petusky, S; Farris, M; Ley, R; Jupp, P. “Combined application of parallel artificial membrane permeability assay and Caco-2 permeability assays in drug discovery.” J. Pharma Sci. 2004, 93 (6), pages 1440-53.
Cell culture methods (e.g. Caco-2, HT-29 and MDC) and physicochemical methods such as PAMPA and immobilized artificial membrane (IAM) columns are known in the art and can be used to obtain data such as that in Table 3. Hidalgo, I J; “Assessing the absorption of new pharmaceuticals.” Curr Top Med. Chem. 2001 November; 1(5): p 385-401.

Cytochrome P450 2C19 = Cytochrome P450 2C19 (Homo sapiens (Human), UniProt P33261); experiment: Cytochrome P450 inhibition, 2C19; assay type: in vitro ADME
Chain of Cytochrome P450 2C19 (P33261 whole entry): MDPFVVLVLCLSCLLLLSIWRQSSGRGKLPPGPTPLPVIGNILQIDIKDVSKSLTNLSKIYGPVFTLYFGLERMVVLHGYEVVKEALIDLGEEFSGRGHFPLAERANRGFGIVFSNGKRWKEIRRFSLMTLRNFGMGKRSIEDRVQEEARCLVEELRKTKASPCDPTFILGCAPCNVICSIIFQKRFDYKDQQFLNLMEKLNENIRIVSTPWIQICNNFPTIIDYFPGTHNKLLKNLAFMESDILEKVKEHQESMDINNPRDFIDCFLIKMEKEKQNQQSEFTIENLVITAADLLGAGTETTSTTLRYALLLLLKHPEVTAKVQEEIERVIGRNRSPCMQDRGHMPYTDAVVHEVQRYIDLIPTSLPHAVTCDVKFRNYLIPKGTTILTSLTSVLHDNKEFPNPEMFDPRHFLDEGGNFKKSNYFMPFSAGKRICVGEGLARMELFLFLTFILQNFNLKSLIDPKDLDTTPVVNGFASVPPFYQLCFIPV
Text: as §2

Cytochrome P450 1A2 = Cytochrome P450 1A2 (Homo sapiens (Human), UniProt P05177); assay type: in vitro ADME
Chain of Cytochrome P450 1A2 (P05177 whole entry): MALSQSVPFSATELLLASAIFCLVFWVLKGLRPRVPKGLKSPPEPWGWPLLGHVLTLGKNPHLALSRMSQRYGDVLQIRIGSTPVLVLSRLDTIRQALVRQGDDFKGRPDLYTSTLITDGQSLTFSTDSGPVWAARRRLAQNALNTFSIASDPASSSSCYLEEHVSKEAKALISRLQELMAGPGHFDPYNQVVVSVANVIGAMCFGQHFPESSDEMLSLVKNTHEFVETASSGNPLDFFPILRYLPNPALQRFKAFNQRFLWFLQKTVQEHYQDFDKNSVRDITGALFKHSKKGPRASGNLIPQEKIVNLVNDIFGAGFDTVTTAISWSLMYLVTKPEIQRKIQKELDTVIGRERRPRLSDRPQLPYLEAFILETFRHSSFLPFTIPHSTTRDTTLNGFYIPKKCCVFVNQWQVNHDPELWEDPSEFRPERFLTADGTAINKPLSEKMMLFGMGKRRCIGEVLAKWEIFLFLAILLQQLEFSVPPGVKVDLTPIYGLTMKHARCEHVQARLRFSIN
Text: as §2

[2] = test system: P. falciparum D10-scDHODH; experiment: Inhibition of transgenic D10-scDHODH parasites, [3H]-hypoxanthine uptake; assay type: cell-based; conditions: Plasmodium falciparum, D10, read-out: D10-scDHODH IC50
Experimental: (§4) P. falciparum strains D10, 3D7, HB3, and Dd2 were obtained from the Malaria Research and Reference Reagent Resource Center (Manassas, Va.). The parasite strains were maintained in vitro by method of Trager and Jensen. The inhibition of P. falciparum growth in the presence of drug was assessed by the relative reduction of [^3H]-hypoxanthine uptake as previously described. Inhibition data were fitted to Equation 1 using non-linear regression analysis except that the relative velocity of parasite growth was substituted for the rate of product formation.
Transgenic parasites expressing scDHODH were generated as described by Painter et al. except that full length scDHODH was cloned directly into the pGem3Z vector without a GFP tag. The resultant plasmid was transfected into ring stages of P. falciparum D10 by electroporation and maintained in culture using standard methods under the selection of WR99210.

[3] = Normal Human Dermal Fibroblast Toxicity Screen; assay type: cell-based; conditions: human, normal human dermal fibroblasts; four days exposure, Alamar Blue; read-out: Dermal Fibroblast LC50
Experimental: The Normal Human Dermal Fibroblast Toxicity Screen Protocol is designed to determine whether compound mixtures, breakouts or single compounds are toxic to normal human dermal fibroblasts. The screen involves plating the dermal fibroblasts and then exposing them to the compounds for four days, then cell viability is measured using Alamar Blue reagent.
Harvested Dermal Fibroblast cells were diluted in Growth Media to 0.25 to 0.3×10^5 cells/mL. […] NOTE: One plate, the T=0 plate required that 20-30 wells be seeded and all the other plates had 96 wells seeded. Plates were incubated in 37° C./5% CO2 incubator for 24 hours.
Alamar Blue solution (25 μL/well) was added to the T=0 plate and the plate was agitated. The plate in 37° C./5% CO2 incubator was incubated for 3 hours, agitated the and the fluorescence was measured. 10% Tween 20 stock (10 μL) was added into rows A-D in column 1 (positive control). DMSO (0.5 μL) was added into column 2 (negative control). Compounds were placed into designated wells for desired testing as follows:
Plates were mixed on the shaker, then incubated in 37° C./5% CO2 incubator for 96 hours.
Alamar Blue solution (25 μL/well) was added to the plates containing the compounds, and the plates were agitated. The plates were incubated in 37° C./5% CO2 incubator for 3 hours, agitated and then the fluorescence was measured.

pfDHODH [4] = molecular target: T1, pfDHODH; experiment: pfDHODH activity with FeCy as electron acceptor; conditions: read-out: % Inhibition of Product Formation Rate with 50 μM Inhibitor, FeCy
Experimental: Inhibitors of DHODH, as classified by the chromogen reduction assay, were also evaluated for activity using FeCy as an electron acceptor. A final concentration of 5-50 nM DHODH, 200 μM L-DHO and 100 μM FeCy in Buffer C was used in this assay. Both the reduction of FeCy and the formation of orotate was monitored at 420 nm (ε420=1 mM^−1 cm^−1) and 290 nm (ε280=2 mM^−1 cm^−1), respectively, noting that two molecules of FeCy are reduced for one molecule of L-DHO. As with the previous assays, the reaction was performed at 25° C. and initiated with the addition of enzyme.

P. falciparum HB3 = experiment: Inhibition of in vitro P. falciparum culture, [3H]-hypoxanthine uptake, HB3; assay type: cell-based; conditions: Plasmodium falciparum, HB3, Erythrocyte; [3H]-hypoxanthine uptake by parasite infected erythrocytes; read-out: HB3 IC50
Experimental: as §4

P. falciparum D10 = experiment: Inhibition of in vitro P. falciparum culture, [3H]-hypoxanthine uptake, D10; assay type: cell-based; conditions: Plasmodium falciparum, D10, Erythrocyte; [3H]-hypoxanthine uptake by parasite infected erythrocytes; read-out: D10 IC50
Experimental: as §4

[5] = Renal Proximal Tubule Epithelial Cell Toxicity Screen; assay type: cell-based
Experimental: The Renal Proximal Tubule Epithelial Cell Toxicity Screen is designed to determine whether compound mixtures, breakouts or single compounds are toxic to normal renal epithelial cells. […] Basically, the screen consists of plating renal epithelial cells, exposing them to the desired compound(s) for 4 days and measuring cell viability using the Alamar Blue reagent.
Harvested Kidney Epithelial cells were diluted in REGM to 1.5×10^4 cells/mL. […] NOTE: One plate, the T=0 plate required that 20-30 wells be seeded, and all the other plates had 96 wells seeded. Plates were incubated in 37° C./5% CO2 incubator for 24 hours.
Alamar Blue solution (25 μL/well) was added to the T=0 plate and mixed. The plate was incubated in 37° C./5% CO2 incubator for 4 hours, mixed and then the fluorescence was measured. 10% Tween 20 stock (10 μL) was added into rows A-D in column 1 (positive control). DMSO (0.5 μL) was added into column 2 (negative control). Compounds were placed into designated wells for desired testing as follows:
Plates were mixed on the shaker, and then incubated in 37° C./5% CO2 incubator for 96 hours. Day 6:
Alamar Blue solution (25 μL/well) was added to the plates containing the compounds and mixed. Plates were incubated in 37° C./5% CO2 incubator for 4 hours, mixed and the fluorescence was measured.

[6] = pfDHODH IC50, DCIP assay, 200 μM L-DHO, 18 μM CoQD, 100 μM DCIP, 20 nM enzyme
[7] = DD2, Erythrocyte, [3H]-hypoxanthine uptake by parasite infected erythrocytes
[8] = 3D7, Erythrocyte, [3H]-hypoxanthine uptake by parasite infected erythrocytes

Row | Compound | inhibition at 50 µM (pfDHODH [1]; 200 μM L-DHO) | IC50 (pfDHODH [1]; [6]) | IC50 [2] | IC50 (P. falciparum Dd2; [7]) | CC50 at 96 h [3] | IC50 (P. falciparum 3D7; [8]) | inhibition at 50 µM (pfDHODH [4]) | IC50 (P. falciparum HB3) | IC50 (P. falciparum D10) | CC50 at 96 h [5] | further results
1 | CCCNC(=O)c1ccc(N2CCN(C)CC2)s1 [Compound 10, 5-(4-methylpiperazin-1-yl)-N-propylthiophene-2-carboxamide] |  |  |  |  |  |  |  |  |  |  | logD (Log D measurement): 1.5; IC50 (pfDHODH [1]; Table 2b, read-out: pfDHODH IC50): > 250000 nM; IC50 (pfDHODH [1]; Table 3, DCIP assay, 20 nM pfDHODH, read-out: pfDHODH IC50): > 30000 nM; EC50 (P. falciparum Dd2; DD2, Table 2b, read-out: Dd2 EC50): > 10000 nM; IC50 (P. falciparum Dd2; DD2, Table 3, [3H]-hypoxanthine uptake): > 10000 nM; EC50 (P. falciparum 3D7; 3D7, Table 2b, read-out: 3D7 EC50): > 10000 nM; IC50 (P. falciparum 3D7; 3D7, Table 3, [3H]-hypoxanthine uptake): > 10000 nM; Cytochrome P450 Inhibition, 2C9 (Cytochrome P450 2C9): >5.0 in 2C9 μM; Cytochrome P450 Inhibition, 2D6 (Cytochrome P450 2D6): >5.0 in 2D6 μM; solubility (Solubility measurement): 24 µg/mL (≈ 89.8 µM); microsomal CLint (Hepatic clearance, rat): 16 µL/min/mg; Cytochrome P450 Inhibition, 3A4 (Cytochrome P450 3A4): >5.0 in 3A4 μM; microsomal CLint (Hepatic clearance, human): 8 µL/min/mg; Papp (Permeability): 11 ×10⁻⁶ cm/s; Cytochrome P450 Inhibition, 2C19 (Cytochrome P450 2C19): >5.0 in 2C19 μM; Cytochrome P450 Inhibition, 1A2 (Cytochrome P450 1A2): >5.0 in 1A2 μM
2 | Cc1ccccc1/C=C/c1cc(O)c2ccccc2n1 [Compound 2] | 94% | 930 ± 100 nM | 8800 nM | 250 nM | > 62000 nM | 320 nM | 1.2% | 240 nM | 300 nM | > 62000 nM | 
3 | CCCCCC1CCCc2c1nc1ccccc1c2O (stereo not shown) [Compound 3] | 100% | 340 ± 100 nM | > 10000 nM | 230 nM | > 62000 nM | 320 nM | 17% | 270 nM | 370 nM | > 62000 nM | 
4 | CCOC(=O)c1[nH]c(C)c(Cc2ccc(OCC)cc2)c1C [Compound 6] | 102% |  | > 10000 nM | 440 nM | > 62000 nM | 770 nM | 4.8% | 690 nM | 1200 nM | > 62000 nM | 
5 | Fc1cc(I)ccc1Nc1ccnc2cc(Cl)ccc12 [Compound 4] | 97% | 580 ± 100 nM | 980 nM | 2300 nM | 64000 nM | 1800 nM | 7.7% | 2200 nM | 1000 nM | 49000 nM | 
